Tests used:
HUVEC cells = assay: CyQUANT proliferation assay of bFGF-stimulated HUVEC; assay type: cell-based, human; settings: 10 ng/ml bFGF; for Proliferation % Inhibition: 48 hours
Description: Cell proliferation was determined by using CyQUANT cell proliferation assay kit from Molecular Probes (catalog #C-7026).
HUVEC cells (50,000/well) in a 96 well microtiter plate were stimulated with 10 ng/ml bFGF in serum-free, M199 growth medium with or without HK peptide for 48 hours at 37° C. in a CO2 incubator. Cells were washed with serum-free medium and frozen at -40° C. Frozen cells were thawed and lysed with a lysis buffer containing the CyQUANT GR dye. Fluorescence was measured using a Cytofluor II Fluorescence Multi-well plate reader with excitation 485 nm and emission with 530 nm.
The percent inhibition of proliferation at a specific peptide concentration was determined for some peptides. For other peptides, an IC50 was calculated from a curve plotting inhibitor concentration versus percent inhibition over a inhibition range of ten to ninety percent inhibition.

HUVECs = assay: Transwell migration of endothelial cells to vitronectin; assay type: cell-based, human; settings: 0.27 μM; four hours at 37° C.
Description: The lower side of 8 μm pore transwell inserts (Costar, Inc.) were coated with 2 μg/ml of vitronectin for one hour and blocked with 2% bovine serum albumin in phosphate buffered saline for one hour. The inserts were then placed into 24 well culture dishes containing 500 μl migration buffer in the lower chamber. Twenty-five thousand HUVECs in 50 μl of migration buffer were added to the upper chamber of duplicate inserts containing 50 μl of a solution of 50 μg/ml GST-SEQ ID NO. 10 peptide in migration buffer (Herpes buffered M199 medium containing 1% BSA, […], […] and 0.2 μM MnCl2) or migration buffer alone. Cells were allowed to migrate from the upper to the lower chamber for four hours at 37° C. Nonmigratory cells were removed from the upper surface by wiping the upper side with an absorbent tip. Cells which migrated to the lower side of the transwell insert were then fixed for 15 minutes with 3.7% paraformaldehyde in phosphate buffered saline and stained with a 2% crystal violet solution. After extensive water washing to remove excess crystal violet, the number of cells which had migrated were counted in three representative high power (200X) fields per inset.

[1] = test system: chorioallantoic membrane (CAM) of embryonated chicken eggs; assay: In ovo chick chorioallantoic membrane (CAM) angiogenesis assay; assay type: in vivo; settings: for inhibition of bFGF-stimulated angiogenesis (blood vessel branch points): bFGF-saturated filter disc on CAM, peptide 0-25 μg in 25 μl saline, 0.27 μM, applied 24 hours later
From the text: New vessels, quantified by blood vessel branching, occurred in response to bFGF, VEGF, or a combination of both. Accordingly, ten day old embryonated chicken eggs were candled to illuminate blood vessels under the shell. An area with a minimum of small blood vessel was identified. The chorioallantoic membrane (CAM) was dropped away from the egg shell in this area by grinding a small hole in the mineralized shell and applying pressure to the underlying inner shell membrane. This caused an air pocket to shift from the wide end of the egg to the identified area and forced a circular region of the CAM approximately 2 cm in diameter to drop away from the shell. A window was cut in the egg shell. A cortisone acetate pre-treated filter disc 5 mm in diameter that was saturated in 1 μg/mi bFGF, a combination of bFGF and VEGF, or saline and was placed on the CAM. The window in the shell was sealed with adhesive tape and the egg was incubated for four days. Peptide GST-SEQ ID NO:10 (0-25 μg in 25 μI saline; 0.27 μM) was applied to the saturated filter 24 hours later and was applied to the stimulated CAM. The CAM was then harvested on the fourth day of stimulation. Data were evaluated in terms of average number of blood vessel branch points per treatment group as well as percent of control using a video camera attached to a personal computer. Under the conditions of the assay, peptide GST-SEQ ID NO:10 inhibited bFGF-stimulated angiogenesis by 97% and bFGF/VEGF-stimulated angiogenesis by 94%. There was no inhibition of bFGF-stimulated angiogenesis by GST alone (<10% inhibition).

## GST-Glu(448)-Ser(626) [GST-SEQ ID NO: 12]
HUVEC cells; peptide conc. 0.35 μM
  Proliferation % Inhibition: 65%

## GST-His(441)-Ser(626) [GST-SEQ ID NO: 8]
HUVEC cells; peptide conc. 0.39 μM
  Proliferation % Inhibition: 100%

## GST-Lys(420)-Asp(474) [GST-SEQ ID NO: 5]
HUVEC cells; peptide conc. 0.36 μM
  Proliferation % Inhibition: 94%

## GST-Lys(420)-Ser(513) [GST-SEQ ID NO: 10]
HUVECs
  inhibition of HUVEC migration to vitronectin: 100%
[1]; bFGF plus GST fusion peptide, CAM
  inhibition of bFGF-induced angiogenesis, as seen in FIG. 1D (in words): substantial inhibition
[1]; harvested on fourth day
  inhibition of bFGF-stimulated angiogenesis (blood vessel branch points): 97%
[1]; filter disc with combination of bFGF and VEGF on CAM, peptide 0.27 μM applied 24 hours later, harvested on fourth day
  inhibition of bFGF/VEGF-stimulated angiogenesis (blood vessel branch points): 94%
HUVEC cells; serum-free M199, 48 hours, read-out: IC50 (inhibition of endothelial cell proliferation)
  IC50: < 30 nM
HUVEC cells; peptide conc. 0.27 μM
  Proliferation % Inhibition: 100%

## glutathione-S-transferase [GST, reference compound]
[1]; harvested on fourth day
  inhibition of bFGF-stimulated angiogenesis (blood vessel branch points): < 10%
